The record followed here is ChEMBL document CHEMBL3507680, “University of Dundee, Gates Library screen for HepG2 cell viability”.

This data set can be described thus: Human HepG2 cell viability assay in 384 well format. Set-up: dose 125 nL, time 70.5 hour; concentration not given beside the values. Type of data set: toxicity, cell-based. The following applies: HepG2 cells, read-out: Inhibition.
Consider `Cc1ccccc1C1(CNC(=O)c2ccc(S(C)(=O)=O)cc2)CC1`, for which the cytotoxicity at 70.5 h was 3.63%.
The figure for `CC(C)(C)C(=O)c1ccsc1NC(=O)CCNC(=O)c1ccco1` is -5.13%.
`CN(CCNC(=O)c1scnc1Cl)c1ccccc1`: the cytotoxicity at 70.5 h was 2.36%.
Regarding `COc1cc(CNCc2ccc(-n3nc(C)cc3C)nc2)cc(OC)c1`, the cytotoxicity at 70.5 h is -5.72%.
As to `CN(C)C(=O)COCc1nn(C)c2c1CCN(Cc1ccco1)C2`, the cytotoxicity at 70.5 h is -5.57%.
`COCC[C@]1(O)CCN(CC(=O)NCc2ccccc2C)C[C@H]1C`: the cytotoxicity at 70.5 h is -2.23%.
For the compound `Cn1ncc2c1CCCC2NCc1cccc(F)c1` (stereo not drawn), the cytotoxicity at 70.5 h is -14.3%.
Regarding `CCCNC(=O)CCNC(=O)N1CCC(=Cc2ccccc2)CC1`, the cytotoxicity at 70.5 h was -4.61%.
Regarding `Cc1cc(C(=O)N2CCC(c3nnc(Cn4ccnc4)n3C)CC2)cs1`, the cytotoxicity at 70.5 h was -9.51%.
On to `Cc1ccc(C(=O)N2CCN(Cc3cccs3)CC2)c(=O)[nH]1`, for which the cytotoxicity at 70.5 h was -3.21%.
In the case of `CC(=O)N[C@@H]1CN(C(=O)Cc2coc3cc(C)ccc23)C[C@H]1O`, the cytotoxicity at 70.5 h is -2.72%.
Regarding `CN(C)c1ncccc1CNS(=O)(=O)c1ccc(F)cc1F`, the cytotoxicity at 70.5 h is -12.9%.
Consider `CC(C)c1nc(CN2CCC(CO)CC2)cs1`, for which the cytotoxicity at 70.5 h amounted to 34.5%.
Take `CSc1cccc(CN(C)C(=O)Nc2nc(C)n(C)n2)c1`: the cytotoxicity at 70.5 h was -3.93%.
For the compound `COc1ccccc1CCN(C)Cc1nc(N)nc(N(C)C)n1`, the cytotoxicity at 70.5 h was -11.2%.
Regarding `Cn1cnc(S(=O)(=O)NCCC(O)c2ccc3c(c2)OCO3)c1` (stereo not drawn), the cytotoxicity at 70.5 h came to 20.5%.
Regarding `c1cnnc(N2CCCC(NCc3nc(C4CC4)no3)C2)c1` (stereo not drawn), the cytotoxicity at 70.5 h was -1.23%.
Take `Cc1ccc(C(=O)Nc2ccc(N3CCC(O)CC3)c(C#N)c2)s1`: the cytotoxicity at 70.5 h stood at 29.7%.
With `Cc1ccc(N2CC[C@@H]3[C@@H]2CCN3C(=O)Cc2cccs2)nn1`, the cytotoxicity at 70.5 h is -3.66%.
As for `CCCS(=O)(=O)N(C)C(=O)CCc1ccsc1`, the cytotoxicity at 70.5 h amounted to 0.207%.
In the case of `CC(C)CN1Cc2nc(N)ncc2C1=O`, the cytotoxicity at 70.5 h was -10.7%.
For `COc1ccc(C(=O)Nc2ccccc2-c2ccc(=O)n(C)n2)cc1`, the cytotoxicity at 70.5 h was 3.05%.
In the case of `c1ccc(-n2ccc(CN3CCOC(Cn4cncn4)C3)n2)cc1` (stereo not drawn), the cytotoxicity at 70.5 h was -8.56%.
For `Cc1ccc(-c2c[nH]c([C@@H]3COCCN3Cc3cccnc3)n2)cc1`, the cytotoxicity at 70.5 h was 14.4%.
With `CCc1nc(CN2CCCC(NCc3nnc(C4CC4)n3C)C2)no1` (stereo not drawn), the cytotoxicity at 70.5 h is -8.85%.
For the compound `CCn1ccnc1CN1CCN(CCOc2ccc(C#N)cc2)CC1`, the cytotoxicity at 70.5 h is -4.7%.
For `Cc1ccc(OC2(C(=O)O)CCN(C/C=C/c3ccco3)CC2)cc1`, the cytotoxicity at 70.5 h was -7.6%.
For `FC(F)(F)c1cc(-c2cccs2)nc(N2CCN3CCCC3C2)n1` (stereo not drawn), the cytotoxicity at 70.5 h is -13.6%.
Next, `O=C(NCc1nnc2n1CCCC2)c1ccc(C2CCCO2)s1` (stereo not drawn): 18.3%; `Cc1c(C(=O)NCC2CCS(=O)(=O)C2)cnn1-c1ccccc1` (stereo not drawn): -1.52%; `Cc1nnsc1CNC(=O)Nc1cccc(N2CCN(C)C2=O)c1`: 5.12%.
The figure for `O=C(CC1CC1)N1CC[C@@H]2[C@H](CC1)N(Cc1cccnc1)CCS2(=O)=O` is 5.01%; for `O=C(c1cnn2c1OCCC2)N1CCC(Cc2ccccc2)CC1` it is 29.6%; for `Cc1cccc(CNc2cc(C3CCCNC3)ccn2)n1` (stereo not drawn) it is -7.94%.
As for `CCS(=O)(=O)CC(=O)Nc1cc(-c2cccc(F)c2F)n[nH]1`, the cytotoxicity at 70.5 h was -9.86%.
The figure for `COC(=O)CN(C(=O)c1cccc(F)c1Cl)c1cccc(C)n1` is 1.83%; for `CNS(=O)(=O)c1ccc(CNC(=O)C2CN(C)CCO2)cc1` (stereo not drawn) it is -5.64%; for `CC(=O)N1CCC(n2nccc2-c2cnc(N(C)CCO)nc2)CC1` it is -6.31%.
The figure for `O=C(CC1CC1)N1CCCn2c(nnc2Cn2cccc2)C1` is -4.38%; for `COCCCn1ccc(NC(=O)NCCCNc2ccccc2)n1` it is -3.49%; for `CN(CC(=O)N(C)C(c1ccc(Cl)cc1)c1cccnc1)C1CC1` (stereo not drawn) it is -5.57%.
Next, `Cc1cccc(C)c1NC(=O)c1cc(S(N)(=O)=O)c(C)o1`: 20.8%; `CCNc1ccnc(-c2ccnc3c2ccn3C)n1`: -2.33%.
Consider `CN(C)c1cc(CNC(=O)Nc2nnc(C3CC3)s2)ccn1`, for which the cytotoxicity at 70.5 h came to 1.07%.
With `Cc1c2ncn(CC(=O)NC(C)C)c(=O)c2nn1C`, the cytotoxicity at 70.5 h worked out at 3.83%.
The figure for `O=C(O)C1CN(Cc2cccc(-c3ccccn3)c2)CCO1` (stereo not drawn) is -9.06%; for `Cc1ccc(N(Cc2ccco2)C(=O)CC2=NN(C)C(=O)C2)cc1` it is -9.83%; for `CC(c1nc(C2CC2)no1)N1CCN(CCN2CCCC2=O)CC1` (stereo not drawn) it is -0.249%.
As for `CC(C)(C)OC(=O)N1CCN(C(=O)c2cnn3c2OCCC3)CC1`, the cytotoxicity at 70.5 h was -0.601%.
`Cc1ccc2oc(=O)n(CCC(=O)N3CCCC4(CNC(=O)O4)C3)c2c1` (stereo not drawn): the cytotoxicity at 70.5 h was -1.82%.
Consider `c1ccc(-c2cccc(-c3ccn(CCN4CCCCC4)n3)c2)nc1`, for which the cytotoxicity at 70.5 h worked out at 13.3%.
`CCCS(=O)(=O)N1C[C@@H]2CN(Cc3ccoc3)CCO[C@@H]2C1`: the cytotoxicity at 70.5 h worked out at 6.66%.
As for `Cc1nc(CCN)cc(N(C)Cc2nc3ccc(F)cc3[nH]2)n1`, the cytotoxicity at 70.5 h turned out to be 0.172%.
Take `Cc1cccc(C(=O)N2C[C@@H]3CCN(c4cccnc4)C[C@@H]3C2)c1`: the cytotoxicity at 70.5 h was 31.2%.
The figure for `CN1C(=O)CC[C@@H]2[C@H]1CCN2S(=O)(=O)c1cccs1` is -1.06%.
Take `Cc1cc(N2CCC(N(C)C(=O)c3ccccc3)CC2)nc(C)n1`: the cytotoxicity at 70.5 h was -0.672%.
Turning to `O=C(O)CCc1cc2n(n1)CCCN(C(=O)c1cc3ccccc3s1)C2`, the cytotoxicity at 70.5 h was determined as 30%.
As for `CCC(C)N(Cc1cc(C)n[nH]1)Cc1ccccc1Cl` (stereo not drawn), the cytotoxicity at 70.5 h is -10.8%.
`O=C(CCc1ccco1)N1CCc2[nH]nc(COc3ccccc3)c2C1`: the cytotoxicity at 70.5 h was determined as 51.5%.
As to `CCOC(=O)[C@]12CCCN(Cc3nccs3)C[C@H]1CN(CCOC)C2`, the cytotoxicity at 70.5 h was -1.13%.
In the case of `CCOc1ccc(Cl)c(C(=O)N2CCCC(N3CCCC3)C2)n1` (stereo not drawn), the cytotoxicity at 70.5 h is -2.98%.
In the case of `Cc1csc(N2CCN(Cc3cnc(C)s3)CC2C)n1` (stereo not drawn), the cytotoxicity at 70.5 h was -2.09%.
With `c1cnc(N2CC[C@@H](OCC3CC3)[C@@H]2Cc2cccnc2)nc1`, the cytotoxicity at 70.5 h was -4.73%.
For `CC(O)CN1CCN(Cc2coc(-c3ccc(Cl)cc3)n2)CC1` (stereo not drawn), the cytotoxicity at 70.5 h is -5.87%.
On to `CCNc1ncc(C(=O)NCc2ccc(F)c(C(F)(F)F)c2)cn1`, for which the cytotoxicity at 70.5 h was 20.6%.
`COCc1c(C(=O)N2CCCC(C(=O)c3ccccc3)C2)noc1C` (stereo not drawn): the cytotoxicity at 70.5 h was -3.85%.
Turning to `O=c1nc(SCc2ccncc2)c2c(n1CCO)CCCC2`, the cytotoxicity at 70.5 h was 14.9%.
For the compound `COCCOCCNC(=O)N1CCN(c2ccccc2C#N)CC1`, the cytotoxicity at 70.5 h was -2.61%.
Next, `Cc1ccc2c(c1)Oc1ncccc1C(=O)N2`: -0.446%; `COc1ccc(CSc2nnc(N)n2C2CC2)cc1F`: 24.8%.
For the compound `COc1ccc(-n2ccc(C(=O)NCCN3CCCCC3)n2)cc1`, the cytotoxicity at 70.5 h was -4.18%.
Next, `Cc1ccncc1-n1cc(CCO)cn1`: -5.86%; `Cn1c(=O)n(C)c2cc(NS(=O)(=O)Cc3ccccc3)ccc21`: -6.3%; `Cc1ccnc(CC(C)N(C)Cc2ccc3c(c2)CCO3)c1` (stereo not drawn): -5.48%.
Next, `Cc1cc2cc(CNC3CCN(CC(=O)N(C)C)CC3)oc2cc1C`: -3.5%; `CNC(=O)c1c(C)cccc1NCc1nnc(C2CC2)o1`: -2.15%; `CCC[C@H]1CN(S(=O)(=O)c2ccc(-c3c(C)noc3C)s2)C[C@@H]1N`: -4.66%.
Next, `Cc1nc[nH]c1C(=O)N1CCC2(CC1)CN(CCN(C)C)C(=O)O2`: -6.22%; `CCOCC1CC2(CCN(C(=O)C3CC=CC3)CC2)CO1` (stereo not drawn): -8.99%; `Cn1ccnc1C(=O)N1CCC2(CCN2Cc2ccc(F)cc2)C1` (stereo not drawn): -3.38%.
`Cc1cnn(CC2CN(Cc3nc4ccccc4nc3C)CCO2)c1` (stereo not drawn): the cytotoxicity at 70.5 h was -0.573%.
The figure for `CC(NCCN1CCN(C(=O)C2CCCC2)CC1)c1ccccn1` (stereo not drawn) is -2.99%.
The figure for `COc1cccc(C2CCCN2C(=O)c2cc3c(nc2OC)CCC3)c1` (stereo not drawn) is -2.74%.
On to `CC(C)N1CC(C(=O)NC(C)(C)CNC(=O)OC(C)(C)C)CC1=O` (stereo not drawn), for which the cytotoxicity at 70.5 h was -3.84%.
On to `Cc1cnn(CCNCc2c(C)nn(C)c2Cl)c1`, for which the cytotoxicity at 70.5 h is -4.35%.
Consider `CCOc1ccccc1C(=O)Oc1cc(=O)n2cccc(C)c2n1`, for which the cytotoxicity at 70.5 h was -21.9%.
On to `CCc1oc(C(=O)NCCc2nc(C(=O)O)cs2)cc1CN1CCCC1`, for which the cytotoxicity at 70.5 h is -3.56%.
Regarding `CN(Cc1cccnc1)C1CC2(CCN(c3ncc(F)cn3)CC2)C1`, the cytotoxicity at 70.5 h is -5.89%.
Consider `CC[C@H]1CN(C(=O)CCn2c(C)cccc2=O)CC[C@@]1(C)O`, for which the cytotoxicity at 70.5 h is -4.82%.
With `CC(O)C1CCN(C(=O)Nc2nc(-c3ccccc3)ns2)CC1` (stereo not drawn), the cytotoxicity at 70.5 h is 4.55%.
As for `COC(=O)[C@]12CNC[C@H]1CN(Cc1nc(C)c[nH]1)C2`, the cytotoxicity at 70.5 h was determined as 8.04%.
For the compound `Cc1c(NC(C)C(C)C)cccc1C(=O)NCc1cnn(C)c1` (stereo not drawn), the cytotoxicity at 70.5 h is -2.68%.
`COc1ccc(-c2nnsc2C(=O)N2CCN(C(C)=O)CC2)cc1`: the cytotoxicity at 70.5 h is -12.8%.
For `Cc1cc(N2CCCC(N(C)C)C2)n2nccc2n1` (stereo not drawn), the cytotoxicity at 70.5 h was found to be 9.89%.
Consider `Cc1cccc(NC2CCN(C(=O)Nc3ccc(F)cc3C)CC2)n1`, for which the cytotoxicity at 70.5 h was -5.61%.
Next, `c1cc(CN2CCc3c(CN4CCCC4)n[nH]c3C2)ccn1`: 23.4%; `CC(C)N1CCC2(CCCN(c3nccc(C(F)(F)F)n3)C2)CC1`: -2.7%; `Cc1cc(CN2CCN(C(=O)C3CCC3)[C@@H]3CS(=O)(=O)C[C@@H]32)ccc1F`: 1.76%.
